From publication PMC12098659 (Scientific Reports, 2025) come the findings set out here.

Structures are written as SMILES.

T1 sequence (P53341 whole entry): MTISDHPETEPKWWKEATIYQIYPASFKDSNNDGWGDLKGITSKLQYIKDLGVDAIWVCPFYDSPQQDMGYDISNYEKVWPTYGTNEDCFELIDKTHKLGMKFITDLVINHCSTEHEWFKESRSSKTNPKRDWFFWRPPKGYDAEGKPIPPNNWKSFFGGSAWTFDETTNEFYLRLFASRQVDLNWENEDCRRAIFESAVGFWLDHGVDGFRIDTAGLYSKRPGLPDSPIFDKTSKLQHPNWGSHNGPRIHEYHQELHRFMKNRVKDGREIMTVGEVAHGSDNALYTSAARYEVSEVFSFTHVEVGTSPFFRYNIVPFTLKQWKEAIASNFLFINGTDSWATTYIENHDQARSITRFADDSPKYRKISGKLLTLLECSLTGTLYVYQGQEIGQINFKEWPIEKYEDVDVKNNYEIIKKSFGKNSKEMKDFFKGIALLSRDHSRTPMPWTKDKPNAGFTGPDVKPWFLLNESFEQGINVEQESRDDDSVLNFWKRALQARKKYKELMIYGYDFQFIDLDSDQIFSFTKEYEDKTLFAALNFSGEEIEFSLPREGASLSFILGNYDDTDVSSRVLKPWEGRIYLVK

The first assay addresses T1, α-glucosidase (Saccharomyces cerevisiae, UniProt P53341). Briefly: Enzyme kinetic study. Type of assay: biochemical.
Details: not given
The Ki is a dissociation constant, usually derived from enzyme kinetics or from competition with a known ligand. Molecule `Cc1ccc(-c2c(N)c(-c3ccc(Cl)cc3)n3nc(-c4ccccc4)nc3c2C#N)cc1` [Compound 15j, 6-Amino-5-(4-chlorophenyl)-2-phenyl-7-(p-tolyl)-^1,2,4triazolo[1,5-a]pyridine-8-carbonitrile] displayed a Ki of 6.6 µM.

Still in this assay, the particulars now being: Lineweaver-Burk plot: Km increases, Vmax unchanged.
As to `Cc1ccc(-c2c(N)c(-c3ccc(Cl)cc3)n3nc(-c4ccccc4)nc3c2C#N)cc1` [Compound 15j, 6-Amino-5-(4-chlorophenyl)-2-phenyl-7-(p-tolyl)-^1,2,4triazolo[1,5-a]pyridine-8-carbonitrile], the α-glucosidase inhibition mode result is listed as “competitive”.

The same assay, now with this note: enzyme treated with 6.6 µM compound 15j; untreated 62.5.
Turning to `Cc1ccc(-c2c(N)c(-c3ccc(Cl)cc3)n3nc(-c4ccccc4)nc3c2C#N)cc1` [Compound 15j, 6-Amino-5-(4-chlorophenyl)-2-phenyl-7-(p-tolyl)-^1,2,4triazolo[1,5-a]pyridine-8-carbonitrile], the “Maximum velocity (Vm) of the treated enzyme” value is 62.5 (nmol min^− 1).

The subject of a further assay is α-amylase.
Assay: not given
The note with it: 100 µM.
For orientation: inhibition means the relative decrease from the control value, in per cent. Molecule `C[C@H]1O[C@H](O[C@H]2[C@H](O)[C@@H](O)[C@@H](O[C@H]3[C@H](O)[C@@H](O)C(O)O[C@@H]3CO)O[C@@H]2CO)[C@H](O)[C@@H](O)[C@@H]1N[C@H]1C=C(CO)[C@@H](O)[C@H](O)[C@H]1O` (some centres unmarked) [Acarbose] came in with an inhibition of 50.1 ± 0.5%.

Another assay has as its target T1, α-glucosidase. Briefly: α-Glucosidase inhibition assay. It counts as biochemical.
Details: not given
By IC50 is commonly meant the concentration that gives 50% inhibition. Higher therefore signals a need for much substance. `N#Cc1c(-c2ccccc2)c(N)c(-c2ccccc2)n2nc(-c3ccccc3)nc12` [Compound 15a, 6-Amino-2,5,7-triphenyl-^1,2,4triazolo[1,5-a]pyridine-8-carbonitrile] gave an IC50 of 20.32 ± 0.11 µM.
The same measure, in the same setting: the same measure for `COc1ccc(-c2c(N)c(-c3ccccc3)c(C#N)c3nc(-c4ccccc4)nn23)cc1` [Compound 15b, 6-Amino-5-(4-methoxyphenyl)-2,7-diphenyl-^1,2,4triazolo[1,5-a]pyridine-8-carbonitrile]: 25.5 ± 0.23 µM; for `N#Cc1c(-c2ccccc2)c(N)c(-c2ccc(Cl)cc2)n2nc(-c3ccccc3)nc12` [Compound 15c, 6-Amino-5-(4-chlorophenyl)-2,7-diphenyl-^1,2,4triazolo[1,5-a]pyridine-8-carbonitrile]: 9.69 ± 0.09 µM; for `N#Cc1c(-c2ccccc2)c(N)c(-c2cccc(Cl)c2)n2nc(-c3ccccc3)nc12` [Compound 15d, 6-Amino-5-(3-chlorophenyl)-2,7-diphenyl-^1,2,4triazolo[1,5-a]pyridine-8-carbonitrile]: 45.54 ± 0.25 µM.
Still for that read-out and setting: the same measure for `N#Cc1c(-c2ccccc2)c(N)c(-c2ccccc2Cl)n2nc(-c3ccccc3)nc12` [Compound 15e, 6-Amino-5-(2-chlorophenyl)-2,7-diphenyl-^1,2,4triazolo[1,5-a]pyridine-8-carbonitrile]: 60.64 ± 0.18 µM.
The same measure, in the same setting: the same measure for `N#Cc1c(-c2ccccc2)c(N)c(-c2ccc(Br)cc2)n2nc(-c3ccccc3)nc12` [Compound 15f, 6-Amino-5-(4-bromophenyl)-2,7-diphenyl-^1,2,4triazolo[1,5-a]pyridine-8-carbonitrile]: 32 ± 0.32 µM; for `N#Cc1c(-c2ccccc2)c(N)c(-c2cccs2)n2nc(-c3ccccc3)nc12` [Compound 15g, 6-Amino-2,7-diphenyl-5-(thiophen-2-yl)-^1,2,4triazolo[1,5-a]pyridine-8-carbonitrile]: 45.73 ± 0.29 µM.
`Cc1ccc(-c2c(N)c(-c3ccccc3)n3nc(-c4ccccc4)nc3c2C#N)cc1` [Compound 15h, 6-Amino-2,5-diphenyl-7-(p-tolyl)-^1,2,4triazolo[1,5-a]pyridine-8-carbonitrile] returned an IC50 of 14.4 ± 0.43 µM.
Same read-out and setting: the same measure for `COc1ccc(-c2c(N)c(-c3ccc(C)cc3)c(C#N)c3nc(-c4ccccc4)nn23)cc1` [Compound 15i, 6-Amino-5-(4-methoxyphenyl)-2-phenyl-7-(p-tolyl)-^1,2,4triazolo[1,5-a]pyridine-8-carbonitrile]: 8.43 ± 0.25 µM; for `Cc1ccc(-c2c(N)c(-c3ccc(Cl)cc3)n3nc(-c4ccccc4)nc3c2C#N)cc1` [Compound 15j, 6-Amino-5-(4-chlorophenyl)-2-phenyl-7-(p-tolyl)-^1,2,4triazolo[1,5-a]pyridine-8-carbonitrile]: 6.6 ± 0.09 µM.
In turn, `Cc1ccc(-c2c(N)c(-c3ccc(Br)cc3)n3nc(-c4ccccc4)nc3c2C#N)cc1` [Compound 15k, 6-Amino-5-(4-bromophenyl)-2-phenyl-7-(p-tolyl)-^1,2,4triazolo[1,5-a]pyridine-8-carbonitrile] had a half-maximal inhibitory concentration (IC50) of 29.89 ± 0.17 µM.
In turn, `Cc1ccc(-c2c(N)c(-c3cccs3)n3nc(-c4ccccc4)nc3c2C#N)cc1` [Compound 15l, 6-Amino-2-phenyl-5-(thiophen-2-yl)-7-(p-tolyl)-^1,2,4triazolo[1,5-a]pyridine-8-carbonitrile] registered an IC50 of 21.49 ± 0.09 µM.
Still for that read-out and setting: next, `COc1ccc(-c2c(N)c(-c3ccccc3)n3nc(-c4ccccc4)nc3c2C#N)cc1` [Compound 15m, 6-Amino-7-(4-methoxyphenyl)-2,5-diphenyl-^1,2,4triazolo[1,5-a]pyridine-8-carbonitrile]: 9.18 ± 0.12 µM; `COc1ccc(-c2c(N)c(-c3ccc(OC)cc3)n3nc(-c4ccccc4)nc3c2C#N)cc1` [Compound 15n, 6-Amino-5,7-bis(4-methoxyphenyl)-2-phenyl-^1,2,4triazolo[1,5-a]pyridine-8-carbonitrile]: 22.31 ± 0.08 µM; `COc1ccc(-c2c(N)c(-c3ccc(Cl)cc3)n3nc(-c4ccccc4)nc3c2C#N)cc1` [Compound 15o, 6-Amino-5-(4-chlorophenyl)-7-(4-methoxyphenyl)-2-phenyl-^1,2,4triazolo[1,5-a]pyridine-8-carbonitrile]: 7.64 ± 0.13 µM.
Still for that read-out and setting: next, `COc1ccc(-c2c(N)c(-c3cccs3)n3nc(-c4ccccc4)nc3c2C#N)cc1` [Compound 15p, 6-Amino-7-(4-methoxyphenyl)-2-phenyl-5-(thiophen-2-yl)-^1,2,4triazolo[1,5-a]pyridine-8-carbonitrile]: 36.33 ± 0.09 µM.
The same measure, in the same setting: the same measure for `N#Cc1c(-c2ccc(Cl)cc2)c(N)c(-c2ccccc2)n2nc(-c3ccccc3)nc12` [Compound 15q, 6-Amino-7-(4-chlorophenyl)-2,5-diphenyl-^1,2,4triazolo[1,5-a]pyridine-8-carbonitrile]: 38.18 ± 0.14 µM.
Turning to `COc1ccc(-c2c(N)c(-c3ccc(Cl)cc3)c(C#N)c3nc(-c4ccccc4)nn23)cc1` [Compound 15r, 6-Amino-7-(4-chlorophenyl)-5-(4-methoxyphenyl)-2-phenyl-^1,2,4triazolo[1,5-a]pyridine-8-carbonitrile], half-maximal inhibition (IC50) required 49.96 ± 0.11 µM.
The same measure, in the same setting: the same measure for `N#Cc1c(-c2ccc(Cl)cc2)c(N)c(-c2ccc(Cl)cc2)n2nc(-c3ccccc3)nc12` [Compound 15s, 6-Amino-5,7-bis(4-chlorophenyl)-2-phenyl-^1,2,4triazolo[1,5-a]pyridine-8-carbonitrile]: 31.49 ± 0.08 µM; for `N#Cc1c(-c2ccc(Cl)cc2)c(N)c(-c2cccs2)n2nc(-c3ccccc3)nc12` [Compound 15t, 6-Amino-7-(4-chlorophenyl)-2-phenyl-5-(thiophen-2-yl)-^1,2,4triazolo[1,5-a]pyridine-8-carbonitrile]: 75.63 ± 0.44 µM.
On the same count and under the same terms, next, `COc1ccc(-c2nc3c(C#N)c(-c4ccccc4)c(N)c(-c4ccccc4)n3n2)cc1` [Compound 15u, 6-Amino-2-(4-methoxyphenyl)-5,7-diphenyl-^1,2,4triazolo[1,5-a]pyridine-8-carbonitrile]: 14.8 ± 0.22 µM; `N#Cc1c(-c2ccccc2)c(N)c(-c2ccccc2)n2nc(-c3ccc(Cl)cc3)nc12` [Compound 15v, 6-Amino-2-(4-chlorophenyl)-5,7-diphenyl-^1,2,4triazolo[1,5-a]pyridine-8-carbonitrile]: 25.13 ± 0.24 µM.
